Experimental data taken from patent US20060122107A1 (Monash University, priority 2002, published 2006).
Entries after “also recorded” stand apart in the source; their conditions may differ. Like-named read-outs stand apart in the source and are kept apart here.

Tests used:
[1] = target: MHC Class I H2-K^b on cells (mouse); test: flow cytometry on RMA-S cells, with against without exogenous peptide
[2] = Serum stability assay; type: in vitro ADME, mouse; settings: for remaining at 2 h, 0.091 mg/ml: male
Description: 10 μL of an aqueous peptide solution containing 1 mg/ml peptide was added to 100 μl of 20% mouse serum (From adult male BL6 mice), and incubated at 37° C. for 0 min, 2 hrs and 12 hrs. At each time point samples were taken and serum proteins removed by precipitation through the addition of 40 μl of 15% TCA. Samples were stored at 4° C. for 30 min and centrifuged. Supernatants were then removed and kept on ice. 50 μl of each supernatant was analysed by RP-HPLC using 0.1% TFA in water (eluent A) and 0.09% TFA in 60% aqueous acetonitrile (eluent B) and the following gradient.
The column was a Pharmacia μRPC octadecyl silica column of […] nominal particle size and 300 Å pore size. The flow rate was 200 μl/min and UV detection was used at 214 nm, 254 nm and 280 nm. Values are given as area of peptide peak (214 nm). Peptide amounts at T=0 min were used as 100%. Peptide digests were fractionated and Electrospray ionisation (ESI) Ion Trap Mass spectrometry was used to characterise the fragmentation pattern of SIINFEKL and selected β-amino acid analogues.
Since β-amino acids are resistant to proteolysis, the influence of peptide modification on stability against proteolysis was tested by monitoring the degradation of the peptides in mouse blood serum. Degradation kinetics were followed by reverse phase-HPLC (RP-HPLC) analysis using corresponding peak area for peptide quantification. The parental SIINFEKL peptide was degraded rapidly, with only 5% of the peptide being recovered after 2 hrs. For the βC3-analogues, the amount of degradation was highly dependent on the position of the substitution. Limited stabilisation occurred for peptides with substitutions at P3 and P4 with 8% and 7% recovery respectively (FIG. 11). For the substitution at P1, 10% of the initial peak was recovered. […] For β-Phe at P5 and β-Leu at P8 over 25% of the initial peak was recovered after 2 hrs.

[3] = test system: CTL clone HSV2.3; test: T-hybrid CTL recognition assay (IL-2 bioassay), control clone HSV2.3; type: cell-based, mouse
Description: (§1) The SIINFEKL/K^b-restricted CD8^+ CTL clones B3.1, GA4.2 (Nikolic-Zugic, J., and Carbone F. R. (1990). The effect of mutations in the MHC Class I peptide binding groove on the cytotoxic T lymphocyte recognition of the Kb restricted ovalbumin determinant. Eur. J. Immunol. 20:2431), 149.13.13, 149.42.12 (Clark S. R., Barnden M., Kurts C., Carbone F. R., Miller J. F., Heath J. R. Characterization of the ovalbumin-specific TCR transgenic line OT-I: MHC elements for positive and negative selection. Immunol Cell Biol. April 2000;78(2): 110-7), and the herpes simplex viral specific clone HSV2.3 (Wallace, M. E., Keating, R., Heath, W R., Carbone, F. R. 1999. […]
(§2) CTLL-2 cells were grown to ˜5×10^5 cell per ml then washed 3 times in media containing no exogenous IL-2. […] Once dry, scintillation fluid (Packard Biosciences, Melbourne) was added, then counted on a TopCount scintillation counter (Packard Biosciences, Melbourne).
(§3) CTL clones (expressing different TCR Vβ/Vα segments) restricted by the H2-K^b molecule, and specific to the SIINFEKL peptide were tested for their ability to recognise the various βC3-amino acid substituted analogues (Table X). […] CTTL-2 proliferation is then measured by 3H-Thymydine incorporation and counted on a scintillation counter.

[4] = test system: SIINFEKL/K^b-restricted CD8^+ CTL clones; test: T-hybrid CTL recognition assay (IL-2 bioassay), panel of clones; type: cell-based, mouse; settings: 1 μM peptide pulsed on I-3 cells
Description: as §1, §2, §3

[5] = test system: CD8^+ T cell response; settings: mixture of peptides intradermally, patients bearing NY-ESO^+ tumors; cited from earlier work
[6] = target: HLA-A2 (Homo sapiens, UniProt P04439, D140Y/D185E/D98H/E176V/E277Q/G131W/G231S/I119V/I121R/I166T/I218V/L300P/L318F/N151K/N90K/P208A/P217A/Q86G/Q94H/R138H/R169H/T345S); settings: cited from earlier work
[7] = 20% mouse serum (From adult male BL6 mice); settings: 37° C., up to 12 hrs
[8] = construct that expresses an ER-targeted ESO157-167
[9] = target: H2-K^b complex with Peptide 4 (βC3-Ile at P3) on cells (mouse); test: RMA-S stabilisation assay with 25-D1.16, flow cytometry
[10] = target: H2-K^b complex with Peptide 2 (βC3-Ser at P1) on cells (mouse); test: as above
[11] = BL6, 20% mouse serum, 37° C., RP-HPLC peak area 214 nm, read-out: peptide recovered after 2 hrs

**Q.** With H2-K^b specific monoclonal antibody Y-3 as the molecule, how does the fold increase in surface K^b staining with exogenous peptide [1] read?
**A.** The fold increase in surface K^b staining with exogenous peptide was 50 fold.

**Q.** For `CC[C@H](C)[C@H](NC(=O)[C@@H](NC(=O)[C@@H](N)CO)[C@@H](C)CC)C(=O)NC(CC(N)=O)CC(=O)N[C@@H](Cc1ccccc1)C(=O)N[C@@H](CCC(=O)O)C(=O)N[C@@H](CCCCN)C(=O)N[C@@H](CC(C)C)C(=O)O` (stereo partly drawn) [Peptide 5], which remaining at 2 h, 0.091 mg/ml ([2]; BL6, mouse, serum) is on record?
**A.** Its remaining at 2 h, 0.091 mg/ml is 7%.

**Q.** Which results are given for “SSIEFARL [peptide recognised by the Herpes Simplex Virus specific control clone HSV2.3]”?
**A.** recognition by control clone HSV2.3 [3]: mainly mediated; CTL recognition by the clones [4]: not recognised

**Q.** What does the source list for SLLMWITQC [ESO157-165]?
**A.** CD8^+ T cell response after peptide vaccination [5]: later and at a lower level; binding to HLA-A2 [6]: poor binding

**Q.** For `CCC(C)C(CC(=O)N[C@@H](CC(N)=O)C(=O)N[C@@H](Cc1ccccc1)C(=O)N[C@@H](CCC(=O)O)C(=O)N[C@@H](CCCCN)C(=O)N[C@@H](CC(C)C)C(=O)O)NC(=O)[C@@H](NC(=O)[C@@H](N)CO)[C@@H](C)CC` (stereo partly drawn) [Peptide 4], which “serum cleavage sites (MS of fragments)” value [2] is on record?
**A.** Its value is “no cleavage at the P2-P3 bond”.

**Q.** And the remaining at 2 h, 0.091 mg/ml ([2]; BL6, mouse, serum)?
**A.** The remaining at 2 h, 0.091 mg/ml was 8%.

**Q.** Which cleaved bond [7] does the source give for SIINFEKL here?
**A.** Its cleaved bond is “S-I, 2 hrs; also recorded: I-N, 2 hrs; also recorded: F-E, 2 hrs; also recorded: E-K, 2 hrs”.

**Q.** Which fragment found [8] does the source give for SLLMWITQCFL here?
**A.** Its fragment found is “ESO157-165; also recorded: ESO159-167”.

**Q.** Which fold increase in peptide concentration to reach the same level of recognition as SIINFEKL [9] does the source give for monoclonal antibody 25-D1.16 here?
**A.** Its fold increase in peptide concentration to reach the same level of recognition as SIINFEKL is 100 fold.

**Q.** What about the fold increase in peptide concentration to reach the same level of recognition as SIINFEKL [10] of the same molecule?
**A.** The fold increase in peptide concentration to reach the same level of recognition as SIINFEKL was 100 fold.

**Q.** Which results are given for `CC[C@H](C)[C@H](NC(=O)[C@@H](NC(=O)[C@@H](N)CO)[C@@H](C)CC)C(=O)N[C@@H](CC(N)=O)C(=O)N[C@@H](Cc1ccccc1)C(=O)N[C@@H](CCC(=O)O)C(=O)N[C@@H](CCCCN)C(=O)N[C@@H](CC(C)C)C(=O)O` [Peptide 1, SIINFEKL, reference compound]?
**A.** remaining at 2 h, 0.091 mg/ml [2, 11]: 5%; serum cleavage sites (MS of fragments) ([2]; mouse serum): S*I*I*NF*E*KL

**Q.** Which remaining at 2 h, 0.091 mg/ml [2, 11] does the source give for `CC[C@H](C)[C@H](NC(=O)[C@@H](NC(=O)[C@@H](N)CO)[C@@H](C)CC)C(=O)N[C@@H](CC(N)=O)C(=O)N[C@@H](Cc1ccccc1)C(=O)N[C@@H](CCC(=O)O)C(=O)N[C@@H](CCCCN)C(=O)NC(CC(=O)O)CC(C)C` (stereo partly drawn) [Peptide 8, SIINFEKβL] here?
**A.** Its remaining at 2 h, 0.091 mg/ml is > 25%.

**Q.** And the “resistance to proteolytic degradation” value ([2]; mouse serum, 2 hrs, listed as P8)?
**A.** Its value is “significant resistance; also recorded: most stable”.

**Q.** For Ser Ile β^c3Ile Asn Phe Glu Lys Leu, which not cleaved [7] is on record?
**A.** The not cleaved was “At t=2 hrs most of the full peptide has disappeared”.

**Q.** Which “CD8^+ T cell response after peptide vaccination” value [5] does the source give for “SLLMWITQCFL [ESO157-167, NY-ESO 157-167 HLA-A*0201-restricted determinant]” here?
**A.** Its value is “vigorous”.

**Q.** What does the source list for `CC[C@H](C)[C@H](NC(=O)[C@@H](NC(=O)[C@@H](N)CO)[C@@H](C)CC)C(=O)N[C@@H](CC(N)=O)C(=O)NC(CC(=O)N[C@@H](CCC(=O)O)C(=O)N[C@@H](CCCCN)C(=O)N[C@@H](CC(C)C)C(=O)O)Cc1ccccc1` (stereo partly drawn) [Peptide 6, SIINβFEKL]?
**A.** full peptide at t=12 hrs [2]: disappeared; serum cleavage sites (MS of fragments) [2]: cleavage did not occur after the P5 amino acid; remaining at 2 h, 0.091 mg/ml ([2]; BL6, mouse, serum): > 25%

**Q.** For `CCC(C)C(CC(=O)N[C@H](C(=O)N[C@@H](CC(N)=O)C(=O)N[C@@H](Cc1ccccc1)C(=O)N[C@@H](CCC(=O)O)C(=O)N[C@@H](CCCCN)C(=O)N[C@@H](CC(C)C)C(=O)O)[C@@H](C)CC)NC(=O)[C@@H](N)CO` (stereo partly drawn) [Peptide 3], which “resistance to proteolytic degradation” value [2] is on record?
**A.** The value was “significant resistance”.

**Q.** For `CC[C@H](C)[C@H](NC(=O)CC(N)CO)C(=O)N[C@H](C(=O)N[C@@H](CC(N)=O)C(=O)N[C@@H](Cc1ccccc1)C(=O)N[C@@H](CCC(=O)O)C(=O)N[C@@H](CCCCN)C(=O)N[C@@H](CC(C)C)C(=O)O)[C@@H](C)CC` (stereo partly drawn) [Peptide 2], which remaining at 2 h, 0.091 mg/ml [2, 11] is on record?
**A.** Its remaining at 2 h, 0.091 mg/ml is 10%.

**Q.** Which not cleaved [7] does the source give for Ser Ile Ile Asn β^c3Phe Glu Lys Leu here?
**A.** Its not cleaved is “At t=12 hrs the full peptide has disappeared leaving only fragments”.
